Assay results as given in US7018618B2, “Stable pharmaceutical solution formulations for pressurized metered dose inhalers” (Chiesi Farmaceutici S.p.A., priority 2000, dated 2006).

Assays:
Assay type in all cases: physicochemical
[1] = Stability of acidified formoterol/BDP-HFA 134a solutions in cans coated with a fluorocarbon polymer; conditions: HFA 134a/12% ethanol/0.4% isopropyl myristate, 3.25 μl 1.0 M HCl
Source text: (§1) Each value is expressed as percent nominal drug concentration.

[2] = Effect of hydrochloric acid on solution pH′ (acidity function) in model vehicle HFA 43-10MEE (Vertrel XF); conditions: titrated with a strong acid in model vehicle HFA 43-10MEE (Vertrel XF)
Experimental: The meter reading represents an apparent pH or acidity function (pH′).
(a) 1.0 M hydrochloric acid was added incrementally to 50 mL of HFA 43-10MEE (Vertrel XF) containing 20% w/w ethanol and pH′ measured after each aliquot of acid.

[3] = Stability of acidified TA 2005-HFA 134a solutions in cans coated with a fluorocarbon polymer
[4] = as above; conditions: for stability (in words): almost three months at 50° C.
Source text: as §1

Question: For CCC(=O)OCC(=O)[C@@]1(OC(=O)CC)[C@@H](C)C[C@H]2[C@@H]3CCC4=CC(=O)C=C[C@]4(C)[C@@]3(Cl)[C@@H](O)C[C@@]21C [BDP, beclometasone dipropionate], which “percent nominal drug concentration” value ([1]; 4° C., 64 days inverted) is on record?
Answer: 100.10 percent nominal

Question: What about the “percent nominal drug concentration” value ([1]; 4° C., 123 days inverted) of the same compound?
Answer: 102.6 percent nominal

Question: What about the “percent nominal drug concentration” value ([1]; Initial) of the same compound?
Answer: 99.4 percent nominal

Question: Which “pH′ down to which the titration profile is shallow, thereafter the acidity function drops abruptly” value [2] does the source give for COc1ccc(C[C@@H](C)NC[C@H](O)c2ccc(O)c3[nH]c(=O)ccc23)cc1 [TA 2005, 8-hydroxy-5-[(1R)-1-hydroxy-2-[[(1R)-2-(4-methoxyphenyl)-1-methylethyl]amino]ethyl]-2(1H)-quinolinone] here?
Answer: ~5.0

Question: What about the “apparent pH” value ([3]; 1.0 μl 0.08 M hydrochloric acid per can, 3.5 μg/50 μl in HFA 134a/12% ethanol/1.0% isopropyl myristate) of the same compound?
Answer: about 4.8

Question: What about the “apparent pH” value ([3]; 1.4 μl 0.08 M hydrochloric acid per can) of the same compound?
Answer: ~3.2

Question: What about the “apparent pH” value ([3]; 1.8 μl 0.08 M hydrochloric acid per can) of the same compound?
Answer: ~2.9

Question: What about the “percent nominal drug concentration” value ([4]; 1.0 μl 0.08 M HCl per can (apparent pH about 4.8), 50° C., 22 days upright) of the same compound?
Answer: 98.3 percent nominal

Question: And the “percent nominal drug concentration” value ([4]; 1.0 μl 0.08 M HCl per can (apparent pH about 4.8), 50° C., 83 days upright)?
Answer: 99.4 percent nominal

Question: What about the “percent nominal drug concentration” value ([4]; 1.0 μl 0.08 M HCl per can (apparent pH about 4.8), Initial, HFA 134a/12% ethanol/1.0% isopropyl myristate, coated cans) of the same compound?
Answer: 100.0 percent nominal

Question: What about the “percent nominal drug concentration” value ([4]; 1.4 μl 0.08 M HCl per can (apparent pH about 3.2), 50° C., 22 days upright) of the same compound?
Answer: 98.2 percent nominal

Question: And the “percent nominal drug concentration” value ([4]; 1.4 μl 0.08 M HCl per can (apparent pH about 3.2), 50° C., 83 days upright)?
Answer: 98.8 percent nominal

Question: What about the “percent nominal drug concentration” value ([4]; 1.4 μl 0.08 M HCl per can (apparent pH about 3.2), Initial) of the same compound?
Answer: 100.0 percent nominal

Question: And the “percent nominal drug concentration” value ([4]; 1.8 μl 0.08 M HCl per can (apparent pH about 2.9), 50° C., 22 days upright)?
Answer: 90.2 percent nominal

Question: And the “percent nominal drug concentration” value ([4]; 1.8 μl 0.08 M HCl per can (apparent pH about 2.9), 50° C., 83 days upright)?
Answer: 88.1 percent nominal

Question: What about the “percent nominal drug concentration” value ([4]; 1.8 μl 0.08 M HCl per can (apparent pH about 2.9), Initial) of the same compound?
Answer: 100.0 percent nominal

Question: And the “stability (in words)” value ([4]; apparent pH between 3.0 and 5.0, stable = much less than 10% loss of drug)?
Answer: stable

Question: And the “stability (in words)” value ([4]; apparent pH of less than 3)?
Answer: not
